Assay results published in PMC12155096 (International Journal of Molecular Sciences, 2025).
pIC50: −log10 of the molar value.

How the values were obtained:
human CYP1A2 = molecular target: T1, human CYP1A2 (Homo sapiens, UniProt P05177)
T1 sequence (P05177 1-516): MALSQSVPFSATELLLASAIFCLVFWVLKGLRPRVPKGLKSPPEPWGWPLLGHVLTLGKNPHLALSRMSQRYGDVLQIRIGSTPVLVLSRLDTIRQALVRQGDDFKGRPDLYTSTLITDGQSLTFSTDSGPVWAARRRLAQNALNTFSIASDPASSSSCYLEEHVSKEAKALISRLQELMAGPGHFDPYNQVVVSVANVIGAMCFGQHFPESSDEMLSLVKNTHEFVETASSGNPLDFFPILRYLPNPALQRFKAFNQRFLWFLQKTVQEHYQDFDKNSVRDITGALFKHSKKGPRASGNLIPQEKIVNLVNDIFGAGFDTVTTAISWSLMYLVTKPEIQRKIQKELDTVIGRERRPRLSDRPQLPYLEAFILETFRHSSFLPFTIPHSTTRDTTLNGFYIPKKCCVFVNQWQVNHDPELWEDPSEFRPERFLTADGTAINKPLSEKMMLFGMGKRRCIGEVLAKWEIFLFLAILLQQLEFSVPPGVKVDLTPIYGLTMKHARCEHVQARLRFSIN

[1] = molecular target: Photinus pyralis (firefly) luciferase (Photinus pyralis, UniProt P08659); assay: biochemical; format: biochemical
human CYP2C9 = human CYP2C9 (Homo sapiens, UniProt P11712)
CYP3A4 = CYP3A4 (Homo sapiens, UniProt P08684)
human CYP2D6 = human CYP2D6 (Homo sapiens, UniProt P10635)
human CYP2C19 = human CYP2C19 (Homo sapiens, UniProt P33261)
human CYP2C19, sequence (P33261 whole entry): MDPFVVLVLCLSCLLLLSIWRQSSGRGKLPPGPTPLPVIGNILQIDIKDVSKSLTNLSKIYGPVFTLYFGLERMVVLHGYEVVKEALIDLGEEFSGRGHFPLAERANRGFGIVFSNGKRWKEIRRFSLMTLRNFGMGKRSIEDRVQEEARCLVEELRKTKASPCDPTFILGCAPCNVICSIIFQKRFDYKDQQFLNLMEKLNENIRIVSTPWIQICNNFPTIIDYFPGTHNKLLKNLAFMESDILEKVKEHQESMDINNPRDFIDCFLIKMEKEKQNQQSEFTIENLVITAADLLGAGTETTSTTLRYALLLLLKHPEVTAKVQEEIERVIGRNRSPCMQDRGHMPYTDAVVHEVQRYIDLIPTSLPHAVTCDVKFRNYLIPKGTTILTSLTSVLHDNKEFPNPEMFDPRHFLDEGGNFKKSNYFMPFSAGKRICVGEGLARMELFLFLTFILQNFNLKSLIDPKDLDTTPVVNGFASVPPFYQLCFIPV

Photinus pyralis (firefly) luciferase, sequence (P08659 whole entry): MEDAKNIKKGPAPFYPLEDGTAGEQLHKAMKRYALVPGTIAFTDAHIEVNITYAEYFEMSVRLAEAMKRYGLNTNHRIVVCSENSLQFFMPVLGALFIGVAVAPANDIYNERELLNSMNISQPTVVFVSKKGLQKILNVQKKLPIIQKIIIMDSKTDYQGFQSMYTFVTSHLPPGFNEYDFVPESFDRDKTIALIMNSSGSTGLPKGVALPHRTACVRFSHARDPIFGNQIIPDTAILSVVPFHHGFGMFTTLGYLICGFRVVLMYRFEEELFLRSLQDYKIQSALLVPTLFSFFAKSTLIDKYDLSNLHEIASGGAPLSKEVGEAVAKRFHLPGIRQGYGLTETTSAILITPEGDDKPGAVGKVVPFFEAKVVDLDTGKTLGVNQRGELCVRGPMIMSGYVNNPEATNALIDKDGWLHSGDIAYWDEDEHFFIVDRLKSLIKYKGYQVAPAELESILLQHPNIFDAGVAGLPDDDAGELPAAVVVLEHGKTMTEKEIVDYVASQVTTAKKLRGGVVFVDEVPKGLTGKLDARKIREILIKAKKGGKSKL
CYP3A4, sequence (P08684 whole entry): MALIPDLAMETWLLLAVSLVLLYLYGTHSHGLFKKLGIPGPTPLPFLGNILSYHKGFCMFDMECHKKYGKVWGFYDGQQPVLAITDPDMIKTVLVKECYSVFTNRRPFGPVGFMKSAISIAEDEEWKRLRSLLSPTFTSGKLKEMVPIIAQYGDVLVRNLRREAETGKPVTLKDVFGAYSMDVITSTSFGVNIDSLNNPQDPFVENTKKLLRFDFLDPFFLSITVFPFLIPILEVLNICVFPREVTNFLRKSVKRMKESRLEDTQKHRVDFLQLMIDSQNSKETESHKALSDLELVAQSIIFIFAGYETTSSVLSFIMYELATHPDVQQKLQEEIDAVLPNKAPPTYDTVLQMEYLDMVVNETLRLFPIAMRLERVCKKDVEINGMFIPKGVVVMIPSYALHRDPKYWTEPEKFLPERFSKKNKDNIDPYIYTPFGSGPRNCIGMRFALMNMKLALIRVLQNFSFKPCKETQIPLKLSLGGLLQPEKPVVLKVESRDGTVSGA
human CYP2D6, sequence (P10635 whole entry): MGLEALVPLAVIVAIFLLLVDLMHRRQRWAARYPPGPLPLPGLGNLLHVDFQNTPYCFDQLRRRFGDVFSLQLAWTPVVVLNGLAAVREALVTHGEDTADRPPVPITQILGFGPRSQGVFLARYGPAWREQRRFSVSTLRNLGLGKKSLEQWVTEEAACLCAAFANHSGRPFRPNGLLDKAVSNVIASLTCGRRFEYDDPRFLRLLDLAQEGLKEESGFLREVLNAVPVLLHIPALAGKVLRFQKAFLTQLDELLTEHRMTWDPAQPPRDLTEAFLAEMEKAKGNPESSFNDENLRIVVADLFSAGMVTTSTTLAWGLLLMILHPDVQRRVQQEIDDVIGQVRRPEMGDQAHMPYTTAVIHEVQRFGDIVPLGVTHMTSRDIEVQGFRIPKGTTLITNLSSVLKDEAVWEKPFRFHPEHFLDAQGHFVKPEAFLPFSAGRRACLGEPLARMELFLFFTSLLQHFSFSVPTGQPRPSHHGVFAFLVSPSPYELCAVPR
human CYP2C9, sequence (P11712 whole entry): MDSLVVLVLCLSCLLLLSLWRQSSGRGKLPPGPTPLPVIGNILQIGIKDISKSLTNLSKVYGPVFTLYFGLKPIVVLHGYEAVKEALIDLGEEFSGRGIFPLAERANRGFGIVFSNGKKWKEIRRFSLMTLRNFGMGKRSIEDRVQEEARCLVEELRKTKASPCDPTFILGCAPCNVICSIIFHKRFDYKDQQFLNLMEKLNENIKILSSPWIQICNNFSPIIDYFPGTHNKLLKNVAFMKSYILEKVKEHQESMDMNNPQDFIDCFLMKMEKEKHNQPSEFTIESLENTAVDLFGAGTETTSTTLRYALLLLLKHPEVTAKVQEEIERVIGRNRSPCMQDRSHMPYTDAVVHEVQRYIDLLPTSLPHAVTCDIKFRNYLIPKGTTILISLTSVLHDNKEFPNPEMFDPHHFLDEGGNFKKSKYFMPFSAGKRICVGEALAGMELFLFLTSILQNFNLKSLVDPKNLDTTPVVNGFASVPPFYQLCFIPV

Question: Which “CYP1A2 IC50 (half-maximal inhibitory concentration)” value (human CYP1A2) does the source give for `CNC(C)Cc1ccc2c(c1)OCO2.Cl` (centres unmarked) here?
Answer: Inactive

Question: What about the “Luciferase IC50 (half-maximal inhibitory concentration)” value [1] of the same molecule?
Answer: Inactive

Question: And the “CYP2C9 IC50 (half-maximal inhibitory concentration)” value (human CYP2C9)?
Answer: Inactive

Question: What about the “CYP3A4 IC50 (half-maximal inhibitory concentration)” value (CYP3A4) of the same molecule?
Answer: Inactive

Question: What about the pIC50 (human CYP2D6) of the same molecule?
Answer: 6.40

Question: What about the “CYP2C19 IC50 (half-maximal inhibitory concentration)” value (human CYP2C19) of the same molecule?
Answer: Inactive

Question: How did the “CYP1A2 IC50 (half-maximal inhibitory concentration)” value (human CYP1A2) turn out when `CC(=O)OC1(c2ccccc2)CCN(CCc2ccccc2)CC1` was run?
Answer: Inactive

Question: What about the “Luciferase IC50 (half-maximal inhibitory concentration)” value [1] of the same molecule?
Answer: Inactive

Question: What about the AC50 (human CYP2C9) of the same molecule?
Answer: 53.2 µM

Question: What about the pIC50 (human CYP2C9) of the same molecule?
Answer: 4.27

Question: And the AC50 (CYP3A4)?
Answer: 40.9 µM

Question: What about the “CYP3A4 IC50 (half-maximal inhibitory concentration)” value (CYP3A4) of the same molecule?
Answer: 40.89 ± 0 (145 ± 9) µM

Question: What about the “CYP2D6 Efficacy” value (human CYP2D6) of the same molecule?
Answer: 0.57 ± 0.14 (-105 ± 2) %

Question: What about the pIC50 (human CYP2D6) of the same molecule?
Answer: 6.24

Question: And the AC50 (human CYP2C19)?
Answer: 36.6 µM

Question: What about the pIC50 (human CYP2C19) of the same molecule?
Answer: 4.44

Question: What does the source list for `FC(F)(F)c1ccccc1-n1ccnc1`?
Answer: pIC50 (human CYP1A2): 5.38; Luciferase IC50 (half-maximal inhibitory concentration) [1]: Inactive; pIC50 (human CYP2C9): 5.08; pIC50 (CYP3A4): 6.36; pIC50 (human CYP2D6): 5.64; CYP2C19 Efficacy (human CYP2C19): 9.3 ± 5.41 (-172 ± 73) %

Question: How did the pIC50 (human CYP1A2) turn out when `CSc1ccc(C(=O)C(C)(C)N2CCOCC2)cc1` was run?
Answer: 4.40

Question: What about the “Luciferase IC50 (half-maximal inhibitory concentration)” value [1] of the same molecule?
Answer: Inactive

Question: And the pIC50 (human CYP2C9)?
Answer: 4.63

Question: And the pIC50 (CYP3A4)?
Answer: 5.50

Question: What about the pIC50 (human CYP2D6) of the same molecule?
Answer: 5.60

Question: What about the “CYP2C19 Efficacy” value (human CYP2C19) of the same molecule?
Answer: 0.94 ± 0.32 (-142 ± 3) %

Question: With `CC(C)(C)c1cc(CCC(=O)NN)cc(C(C)(C)C)c1O` as the molecule, how does the “CYP1A2 Efficacy (in parenthesis)” value (human CYP1A2) read?
Answer: 6.97 ± 1.74 (-102 ± 5) %

Question: What about the pIC50 (human CYP1A2) of the same molecule?
Answer: 5.16

Question: What about the “Luciferase IC50 (half-maximal inhibitory concentration)” value [1] of the same molecule?
Answer: Inactive

Question: What about the “CYP2C9 Efficacy (in parenthesis)” value (human CYP2C9) of the same molecule?
Answer: 5.92 ± 1.06 (-98 ± 3) %

Question: What about the pIC50 (human CYP2C9) of the same molecule?
Answer: 5.23

Question: What about the “CYP3A4 Efficacy (in parenthesis)” value (CYP3A4) of the same molecule?
Answer: 0.14 ± 0.02 (-94 ± 4) %

Question: What about the pIC50 (CYP3A4) of the same molecule?
Answer: 6.85

Question: And the “CYP2D6 Efficacy (in parenthesis)” value (human CYP2D6)?
Answer: 34.28 ± 2.23 (-95 ± 1) %

Question: What about the pIC50 (human CYP2D6) of the same molecule?
Answer: 4.46

Question: And the “CYP2C19 Efficacy (in parenthesis)” value (human CYP2C19)?
Answer: 5.4 ± 1.6 (-136 ± 2) %

Question: And the pIC50 (human CYP2C19)?
Answer: 5.27

Question: Which “CYP1A2 Efficacy (in parenthesis)” value (human CYP1A2) does the source give for `C=CCc1cc(S(=O)(=O)c2ccc(O)c(CC=C)c2)ccc1O` here?
Answer: 73.87 ± 5 (-42 ± 2) %

Question: And the pIC50 (human CYP1A2)?
Answer: 4.13

Question: And the “Luciferase IC50 (half-maximal inhibitory concentration)” value [1]?
Answer: Inactive

Question: What about the “CYP2C9 Efficacy (in parenthesis)” value (human CYP2C9) of the same molecule?
Answer: 0.4 ± 0.13 (-67 ± 11) %

Question: And the pIC50 (human CYP2C9)?
Answer: 6.40

Question: What about the “CYP3A4 Efficacy (in parenthesis)” value (CYP3A4) of the same molecule?
Answer: 20.01 ± 7.14 (-71 ± 11) %

Question: What about the pIC50 (CYP3A4) of the same molecule?
Answer: 4.70

Question: What about the “CYP2D6 Efficacy (in parenthesis)” value (human CYP2D6) of the same molecule?
Answer: 6.26 ± 1.74 (-110 ± 9) %

Question: And the pIC50 (human CYP2D6)?
Answer: 5.20

Question: What about the “CYP2C19 Efficacy (in parenthesis)” value (human CYP2C19) of the same molecule?
Answer: 3.47 ± 1.89 (-136 ± 7) %

Question: What about the pIC50 (human CYP2C19) of the same molecule?
Answer: 5.46

Question: `C[N+](C)(CCOc1ccccc1)Cc1cccs1.[I-]` was tested. Which “CYP1A2 IC50 (half-maximal inhibitory concentration)” value (human CYP1A2) did it give?
Answer: Inactive

Question: And the “Luciferase IC50 (half-maximal inhibitory concentration)” value [1]?
Answer: Inactive

Question: And the “CYP2C9 IC50 (half-maximal inhibitory concentration)” value (human CYP2C9)?
Answer: Inactive

Question: And the “CYP3A4 IC50 (half-maximal inhibitory concentration)” value (CYP3A4)?
Answer: Inactive

Question: And the pIC50 (human CYP2D6)?
Answer: 6.82

Question: And the “CYP2C19 IC50 (half-maximal inhibitory concentration)” value (human CYP2C19)?
Answer: Inactive

Question: With `CCCC[P+](CC)(CCCC)CCCC.CCOP(=O)([O-])OCC` as the molecule, how does the “CYP1A2 IC50” value (human CYP1A2) read?
Answer: Inactive

Question: And the “Luciferase IC50” value [1]?
Answer: Inactive

Question: And the “CYP2C9 IC50” value (human CYP2C9)?
Answer: Inactive

Question: What about the “CYP3A4 IC50” value (CYP3A4) of the same molecule?
Answer: Inactive

Question: And the pIC50 (human CYP2D6)?
Answer: 7.22

Question: What about the “CYP2C19 Efficacy” value (human CYP2C19) of the same molecule?
Answer: 70.71 ± 33.56 (-88 ± 37) %

Question: How did the pIC50 (human CYP1A2) turn out when `COC(=O)c1c(C)cc(O)c(C)c1O` was run?
Answer: 6.62

Question: What about the “Luciferase IC50 (half-maximal inhibitory concentration)” value [1] of the same molecule?
Answer: Inactive

Question: And the pIC50 (human CYP2C9)?
Answer: 4.30

Question: What about the pIC50 (CYP3A4) of the same molecule?
Answer: 4.27

Question: What about the pIC50 (human CYP2D6) of the same molecule?
Answer: 4.48

Question: What about the “CYP2C19 Efficacy” value (human CYP2C19) of the same molecule?
Answer: 6.41 ± 1.34 (-140 ± 12) %

Question: Which results are given for `CCCCCCCC[N+](C)(CCCCCCCC)CCCCCCCC.O=S(=O)([O-])C(F)(F)F`?
Answer: pIC50 (human CYP1A2): 4.32; Luciferase IC50 (half-maximal inhibitory concentration) [1]: Inactive; pIC50 (human CYP2C9): 4.55; pIC50 (CYP3A4): 5.43; pIC50 (human CYP2D6): 6.72; pIC50 (human CYP2C19): 4.89

Question: `Cl.Cl.NCCNc1cccc2ccccc12` was tested. Which “CYP1A2 Efficacy” value (human CYP1A2) did it give?
Answer: 0.57 ± 0.07 (-100 ± 5) %

Question: What about the “Luciferase IC50” value [1] of the same molecule?
Answer: Inactive

Question: What about the “CYP2C9 Efficacy” value (human CYP2C9) of the same molecule?
Answer: 17.25 ± 2.37 (-110 ± 3) %

Question: And the pIC50 (CYP3A4)?
Answer: 4.50

Question: And the “CYP2D6 Efficacy” value (human CYP2D6)?
Answer: 5.04 ± 0.58 (-104 ± 5) %

Question: What about the “CYP2C19 Efficacy” value (human CYP2C19) of the same molecule?
Answer: 24.7 ± 6.17 (-146 ± 5) %
